# In ChEMBL document CHEMBL3885881, “DrugMatrix”:
# Species on record: Rattus norvegicus
# Experiment: DrugMatrix - Regimen: Daily Repeat
# Type: toxicity, organism-based, Sprague-Dawley
# Parameters: regimen Daily Repeat, gender Male, age 6-8 weeks
# Conditions: in vivo, po, 68 mg/kg, route oral GAVAGE, dose level High, vehicle .5 % CMC; for ABSOLUTE BASOPHIL / ABSOLUTE EOSINOPHIL / ABSOLUTE LYMPHOCYTE / ABSOLUTE MONOCYTE / ABSOLUTE SEGMENTED NEUTROPHIL / BASOPHIL / EOSINOPHIL / ERYTHROCYTE COUNT / HEMATOCRIT / HEMOGLOBIN / LEUKOCYTE COUNT / LYMPHOCYTE / MEAN CORPUSCULAR HEMOGLOBIN / MEAN CORPUSCULAR HEMOGLOBIN CONCENTRATION / MEAN CORPUSCULAR VOLUME / MONOCYTE / NEUTROPHIL / NUCLEATED RED BLOOD CELLS / PLATELET COUNT: tissue Blood; for ALANINE AMINOTRANSFERASE / ALBUMIN / ALKALINE PHOSPHATASE / ASPARTATE AMINOTRANSFERASE / BLOOD UREA NITROGEN / CARBON DIOXIDE / CHLORIDE / CHOLESTEROL / CREATINE PHOSPHOKINASE / CREATININE / GLUCOSE / LACTATE DEHYDROGENASE / LIPASE / PHOSPHORUS / POTASSIUM / SODIUM / TOTAL BILIRUBIN / TOTAL PROTEIN / URIC ACID: tissue Plasma
compound,measurement,setting,value
C[C@]12C=CC(=O)C=C1CC[C@@H]1[C@@H]2C(=O)C[C@@]2(C)[C@H]1CC[C@]2(O)C(=O)CO [PREDNISONE],ABSOLUTE BASOPHIL,"72 h, time 3 day",0 CELLS/uL
same,ABSOLUTE EOSINOPHIL,"72 h, time 3 day",35 CELLS/uL
same,ABSOLUTE LYMPHOCYTE,"72 h, time 3 day",7367 CELLS/uL
same,ABSOLUTE MONOCYTE,"72 h, time 3 day",79.33 CELLS/uL
same,ABSOLUTE SEGMENTED NEUTROPHIL,"72 h, time 3 day",1085.33 CELLS/uL
same,BASOPHIL,"72 h, time 3 day",0%
same,EOSINOPHIL,"72 h, time 3 day",0.33%
same,ERYTHROCYTE COUNT,"72 h, time 3 day",5.88 x10E6/uL
same,HEMATOCRIT,"72 h, time 3 day",37.6%
same,HEMOGLOBIN,"72 h, time 3 day",13.93 G/DL
same,LEUKOCYTE COUNT,"72 h, time 3 day",8.57 x10E3/uL
same,LYMPHOCYTE,"72 h, time 3 day",86%
same,MEAN CORPUSCULAR HEMOGLOBIN,"72 h, time 3 day",23.7 pg
same,MEAN CORPUSCULAR HEMOGLOBIN CONCENTRATION,"72 h, time 3 day",37.07 G/DL
same,MEAN CORPUSCULAR VOLUME,"72 h, time 3 day",64 fL
same,MONOCYTE,"72 h, time 3 day",1%
same,NEUTROPHIL,"72 h, time 3 day",12.67%
same,NUCLEATED RED BLOOD CELLS,"72 h, time 3 day",0.33 /100WBC
same,PLATELET COUNT,"72 h, time 3 day",1265.33 x10E3/uL
same,ALANINE AMINOTRANSFERASE,"72 h, time 3 day",45.33 u/L
same,ALBUMIN,"72 h, time 3 day",4.9 G/DL
same,ALKALINE PHOSPHATASE,"72 h, time 3 day",446 u/L
same,ASPARTATE AMINOTRANSFERASE,"72 h, time 3 day",84 u/L
same,BLOOD UREA NITROGEN,"72 h, time 3 day",18.33 mg/dL
same,CARBON DIOXIDE,"72 h, time 3 day",17 mmol/L
same,CHLORIDE,"72 h, time 3 day",102 MEQ/L
same,CHOLESTEROL,"72 h, time 3 day",71.33 mg/dL
same,CREATINE PHOSPHOKINASE,"72 h, time 3 day",290.67 u/L
same,CREATININE,"72 h, time 3 day",0.2 mg/dL
same,GLUCOSE,"72 h, time 3 day",148 mg/dL
same,LACTATE DEHYDROGENASE,"72 h, time 3 day",411.33 u/L
same,LIPASE,"72 h, time 3 day",11.33 u/L
same,PHOSPHORUS,"72 h, time 3 day",13.93 mg/dL
same,POTASSIUM,"72 h, time 3 day",7.66 MEQ/L
same,SODIUM,"72 h, time 3 day",147.03 MEQ/L
same,TOTAL BILIRUBIN,"72 h, time 3 day",0.27 mg/dL
same,TOTAL PROTEIN,"72 h, time 3 day",6.87 G/DL
same,URIC ACID,"72 h, time 3 day",2.23 mg/dL
same,ABSOLUTE BASOPHIL,"120 h, time 5 day",0 CELLS/uL
same,ABSOLUTE EOSINOPHIL,"120 h, time 5 day",26.33 CELLS/uL
same,ABSOLUTE LYMPHOCYTE,"120 h, time 5 day",7838.33 CELLS/uL
same,ABSOLUTE MONOCYTE,"120 h, time 5 day",52.67 CELLS/uL
same,ABSOLUTE SEGMENTED NEUTROPHIL,"120 h, time 5 day",1616 CELLS/uL
same,BASOPHIL,"120 h, time 5 day",0%
same,EOSINOPHIL,"120 h, time 5 day",0.33%
same,ERYTHROCYTE COUNT,"120 h, time 5 day",6.38 x10E6/uL
same,HEMATOCRIT,"120 h, time 5 day",39.03%
same,HEMOGLOBIN,"120 h, time 5 day",14.3 G/DL
same,LEUKOCYTE COUNT,"120 h, time 5 day",9.53 x10E3/uL
same,LYMPHOCYTE,"120 h, time 5 day",81.33%
same,MEAN CORPUSCULAR HEMOGLOBIN,"120 h, time 5 day",22.43 pg
same,MEAN CORPUSCULAR HEMOGLOBIN CONCENTRATION,"120 h, time 5 day",36.63 G/DL
same,MEAN CORPUSCULAR VOLUME,"120 h, time 5 day",61.17 fL
same,MONOCYTE,"120 h, time 5 day",0.67%
same,NEUTROPHIL,"120 h, time 5 day",17.67%
same,NUCLEATED RED BLOOD CELLS,"120 h, time 5 day",0 /100WBC
same,PLATELET COUNT,"120 h, time 5 day",1351.33 x10E3/uL
same,ALANINE AMINOTRANSFERASE,"120 h, time 5 day",47 u/L
same,ALBUMIN,"120 h, time 5 day",4.67 G/DL
same,ALKALINE PHOSPHATASE,"120 h, time 5 day",399 u/L
same,ASPARTATE AMINOTRANSFERASE,"120 h, time 5 day",95.33 u/L
same,BLOOD UREA NITROGEN,"120 h, time 5 day",19 mg/dL
same,CARBON DIOXIDE,"120 h, time 5 day",30.67 mmol/L
same,CHLORIDE,"120 h, time 5 day",103.33 MEQ/L
same,CHOLESTEROL,"120 h, time 5 day",49 mg/dL
same,CREATINE PHOSPHOKINASE,"120 h, time 5 day",935.33 u/L
same,CREATININE,"120 h, time 5 day",0.2 mg/dL
same,GLUCOSE,"120 h, time 5 day",169 mg/dL
same,LACTATE DEHYDROGENASE,"120 h, time 5 day",578.33 u/L
same,LIPASE,"120 h, time 5 day",12.33 u/L
same,PHOSPHORUS,"120 h, time 5 day",13.23 mg/dL
same,POTASSIUM,"120 h, time 5 day",6.47 MEQ/L
same,SODIUM,"120 h, time 5 day",147.4 MEQ/L
same,TOTAL BILIRUBIN,"120 h, time 5 day",0.27 mg/dL
same,TOTAL PROTEIN,"120 h, time 5 day",6.8 G/DL
same,URIC ACID,"120 h, time 5 day",1.87 mg/dL
